Assay: gradient 5% acetonitrile 3 min, to 50% in 2 min, to 85% in 15 min, held 3 min, 100 µL/min
Details: column: Zorbax Extend-C18 2.1 x 50 mm; eluents: water / acetonitrile, 0.1% formic acid
Method in brief: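 Retention times of pure standards were taken from adduct peaks that were selected by computer and manually inspected. Over 3 months, mixtures of ~100 molecules were run by HPLC–quadrupole time-of-flight mass spectrometry in positive and negative ionization mode. The Zorbax Extend-C18 column (2.1 × 50 mm, 1.8 μm) ran at 100 μL/min in water and acetonitrile, each containing 0.1% formic acid, with 40 μL dead volume and 900 μL dwell volume.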

SMILES	RP-LC retention time [s]
O=C(C1CC(=O)N(c2ccccc2)C1)N1CCC2(CC1)OCCS2 (stereo not given)	682
Cc1noc(C)c1CC(=O)N1CCc2c(c(-c3nncn3C)nn2C)C1	591
O=C(Cn1nc(N2CCSCC2)c2ccccc2c1=O)Nc1cccc(C(F)(F)F)c1	1030
Cc1ccc(-c2nc3ccc(Cl)cn3c2Nc2ccccc2C)cc1	904
Cc1cc(C(=O)Nc2ccc(Br)cc2F)n(-c2ccccc2)n1	1010
O=C(CCc1nnc2c3cc(-c4ccccc4)nn3ccn12)N1CCC2(CC1)OCCO2	686
COCCNC(=O)N1CCCN(C2=NS(=O)(=O)C(c3cccc(Cl)c3)=C2C)CC1	706
Cc1ccc(/C=C/S(=O)(=O)NCCn2nc(-c3cccnc3)ccc2=O)cc1	638
CC1=NOC(C)(CNC(=O)NC2CCCCC2)C1 (stereo not given)	659
O=C(NCCn1c(=O)n(Cc2ccc(F)cc2)c2cccnc21)c1ccco1	719
CSc1cccc(NC(=O)N2CC(c3nc(C)no3)C3(CCOCC3)C2)c1 (stereo not given)	760
CCn1nccc1C(=O)N1CCC(n2c(-c3ccsc3)nc3cccnc32)C1 (stereo not given)	643
CCC(C(=O)Nc1cc(-c2cn3nc(OC)ccc3n2)ccc1F)c1ccccc1 (stereo not given)	916
COc1ccc(-c2nc(-c3ccc(-c4ccc(Cl)cc4)o3)[nH]c2-c2ccc(OC)cc2)cc1	988
O=C(N[C@H]1C[C@@H]2C[C@H]1N(C(=O)Nc1ccc(Cl)cc1F)C2)c1cccs1	855
CCN1CCCn2cc(S(=O)(=O)N3CCN(Cc4ccccc4)CC3)cc2C1=O	587

SMILES	RP-LC retention time [s]
CCOc1ccc(CCNC(=O)c2cc3sc(Cl)cc3n2CC)cc1OCC	1200
CNC(=O)c1c(F)cccc1Nc1nc(Nc2cc3c(cc2OC)CCN3C(=O)CN(C)C)nc2[nH]ccc12	652
Cc1cc(C)cc(C(=O)N2CC=C(C(=O)NC3CC3)CC2)c1	755
CC(C(=O)N1CC2CN(S(=O)(=O)c3cccc(F)c3)CC(C1)O2)c1ccccc1 (stereo not given)	878
Cc1cccc(N2CCN(c3ccc(SCC(=O)Nc4cccc(F)c4)nn3)CC2)c1	896
COc1ccc(C(=O)c2c(N)c(C#N)c3ccccn23)cc1	777
O=C(OCCCNc1nc(-c2ccc(Cl)cc2)nc2ccccc12)c1cccs1	804
O=C(C1=NNc2ccccc2S1(=O)=O)N1CCCCCC1	735
O=C(NCC1(O)CCc2ccccc21)Nc1ccccc1Cl (stereo not given)	762
Cc1ccc(-c2csc(NC(=O)c3sc(-c4ccccc4)nc3C)n2)cc1C	1390
COc1ccc(-c2nnc3ccc(SCC(=O)Nc4nc(C)cs4)nn23)cc1OC	606
Cc1sc(NC(=O)CN(C)S(C)(=O)=O)c(C#N)c1C	719
CNC(=O)c1sc2nc(-c3ccc(OC)cc3)c(NCCOC)n2c1C	656
Cc1ccc(Cl)cc1NC(=O)CC1COc2ccccc2NC1=O (stereo not given)	767
Cc1ccc(NC(=O)Cn2c(C)cc(-c3nnc(C)o3)c2C)c(Cl)c1	835
CCN(CCNC(=O)C1CCCN(c2ncnc3c2nc2n3CCCCC2)C1)Cc1ccccc1 (stereo not given)	639

Now from value to molecule:

RP-LC retention time [s]	SMILES
788	COc1ccc(-c2cc3n(n2)CCCN(C(=O)c2cccnc2SC)C3)cc1
964	CC(C)CNC(=O)NC1CCN(c2nc3cccnc3n(Cc3ccccc3)c2=O)CC1
891	Cc1ccc(C)c(N2CCN(c3ccnc(SCC(=O)Nc4ccc(F)cc4)n3)CC2)c1
761	CCN1C(=O)CCc2cc(NC(=O)c3n[nH]c4ccccc34)ccc21
715	O=C(NCc1cc(F)ccc1F)C1CCc2nc(N3CCOCC3)ncc2C1 (stereo not given)
922	Cc1ccsc1C(=O)N1CCC2(CC1)N=C(c1cccc(Br)c1)NO2
740	O=S(=O)(Nc1ccc(Cl)cc1F)c1c[nH]c2ncccc12
1000	CCn1ccc2cc(S(=O)(=O)N3CCCC(C(=O)NCCCc4ccccc4)C3)ccc21 (stereo not given)
896	Cc1ccc(CNC(=O)Cc2csc3nc(-c4ccc(C)c(C)c4)cn23)cc1
734	O=C(NCCc1csc(C2CCN(C(=O)C3CCCCC3)CC2)n1)C1CC1
662	CC(C)N1C(=O)c2cccnc2Sc2cc(NC(=O)c3ccncc3)ccc21
786	CCn1ccc2sc(C)c(C(=O)NCc3ccc(OC)cc3)c2c1=O
962	O=C(Cc1ccc(Cl)cc1)Nc1cnc(N2CCCCC2)nc1
1300	Cc1ccc(-c2noc(Cn3cnc4c(cnn4-c4ccc(C(C)C)cc4)c3=O)n2)cc1
1060	O=C(NCCC1CCCCN1S(=O)(=O)c1ccccc1)C(=O)Nc1ccccc1Cl (stereo not given)
1090	O=S(=O)(c1ccccc1Br)N1CCc2nc(-c3ccccc3)ncc2C1
900	O=C(Nc1cccc(C(F)(F)F)c1)C1CCc2nc(N3CCOCC3)ncc2C1 (stereo not given)

RP-LC retention time [s]	SMILES
1150	CC1(C)CCC[C@@](C)([C@H]2CC[C@]3(C)[C@@H]2[C@H](O)C[C@@H]2[C@@]4(C)CC[C@H](O)C(C)(C)[C@@H]4[C@@H](O)C[C@]23C)O1
676	O=C(Nc1ccc(Br)cc1F)C1CCN(C(=O)c2cc(-c3cccnc3)n[nH]2)CC1
829	Cc1nnc(-c2ccc3ccn(CC(=O)Nc4ccc(F)c(F)c4)c3c2)o1
737	CCOc1ccc(CNC(=O)C2CCCN(c3nn4c(=O)c5c(nc4s3)CCCC5)C2)cc1OC (stereo not given)
868	CCOC(=O)c1[nH]c(C)c(CCC(=O)N2CCCC(C(=O)NC3CCCCCC3)C2)c1C (stereo not given)
751	CC1CCN(S(=O)(=O)N2CCC(C(=O)N3CCC(Cc4nncn4CC4CC4)CC3)CC2)CC1
1110	COC(=O)c1ccc2c(=O)n(-c3ccc4c(c3)OCO4)c(N3CCN(c4ccccc4)CC3)nc2c1
638	O=C(Nc1cccc2ccc(-n3ccnc3)nc12)c1ccccc1C(F)(F)F
816	COCCN1C(=O)CCc2cc(NS(=O)(=O)c3ccc(C)c(C)c3)ccc21
813	O=C(NC1CC1)c1ccc(OCC2CCCN2C(=O)Cc2ccc(F)cc2)cc1 (stereo not given)
979	CCCN(Cc1cccs1)C(=O)C1CCc2nc(N3CCC(C)CC3)ncc2C1 (stereo not given)
583	CNC(=O)c1cc(-c2ccc(OC)cc2)n[nH]1
751	Cc1c2cnccc2c(C)c2c1c1ccccc1n2CCOC(=O)c1ccccc1
665	CCn1ccc(C(=O)N2CCC(c3noc(-c4ccncc4)n3)C2)n1 (stereo not given)
790	Cn1ncc2c(N3CCCC3)nc(C(=O)NCc3ccc(F)cc3)nc21
723	CC(=O)N1CCc2cc(C(=O)N3CCCCCC3)ccc21

From the METLIN SMRT retention time set (Domingo-Almenara et al. 2019)
